Patent publication US20100330098A1, “METHODS TO REGULATE GLUCOSE METABOLISM” (priority 2009, published 2010)
“Also recorded” adds a separate entry of the source.

How the values were obtained:
Assay type in all cases: in vivo, mouse
[1] = test system: db/db mice; assay: Glucose tolerance test in db/db mice; conditions: twice-weekly s.c. 25 mg/kg VEGF Trap vs hFc, 0.5 g/kg glucose i.p. (FIGS. 29-30)
Experimental: FIG. 26 is a graph showing the results of glucose tolerance tests. 7 d after adenoviral infection, mice were given 0.5 g/kg glucose intraperitoneally and blood glucose levels were measured.
FIG. 29 is a graph showing the results of a glucose tolerance test in db/db mice. Mice were given 0.5 g/kg glucose intraperitoneally and blood glucose levels were measured. * P<0.03 between treatment groups at the indicated time points. Values are mean±s.e.m.
FIG. 30 is a graph showing the results of a glucose tolerance test in db/db mice. Mice were given 0.5 g/kg glucose intraperitoneally and blood glucose levels were measured. * P<0.03 between treatment groups at the indicated time points. Values are mean±s.e.m.
FIG. 32 is a graph showing the results of a glucose tolerance test in db/db mice. Mice were given 0.5 g/kg glucose intraperitoneally and blood glucose levels were measured. * P<0.02 between treatment groups at the indicated time points. Values are mean±s.e.m.
(§1) FIGS. 25-27 illustrate that VEGF inhibition and HIF-2α activation reverse the diabetic phenotype of db/db mice. The data of […] are from 10 week-old female db/db mice injected with 5×10^8 pfu of the indicated viruses.
FIGS. 28-29 illustrate that the chronic administration of VEGF Trap protein improves hepatic glucose tolerance in db/db mice. […]

[2] = test system: insulin receptor (IR) signaling intermediates Akt, GSK-3β, FOXO1; assay: Western blot of liver extracts: phosphorylation of insulin receptor signaling intermediates; conditions: livers from VEGF Trap-treated mice (FIG. 8)
Source text: (§2) FIG. 4 is a Western blot indicating increased hepatic insulin signaling following single intravenous injections of 5×10^8 pfu Ad Flt1 (VEGF inhibition) or Ad Fc (negative control) into adult C57Bl/6 mice. […] IR-β: b-subunit of the IR. * P≦0.05; n=5 animals each.
(§3) FIG. 8 is a digital image of a Western blot analysis.

[3] = test system: G6PC and PEPCK; assay: Quantitative PCR of hepatic gluconeogenic gene expression; conditions: SCID mice, six weeks twice-weekly s.c. 25 mg/kg VEGF Trap vs human Fc (FIG. 9)
[4] = test system: C57Bl/6 and SCID mice; assay: Ad libidum and fasting blood glucose levels in wild-type mice; conditions: 6 weeks of twice-weekly s.c. VEGF Trap vs human Fc (FIG. 6)
[5] = test system: C57Bl/6 mice; assay: Euglycemic, hyperinsulinemic clamp analyses; conditions: adult male C57Bl/6 mice
Source text: Adult male C57Bl/6 mice (n=8 or 9) were used. * P=0.01 ** P=0.0001 for control vs. treatment.

[6] = test system: IRS-2; assay: Western blot of liver extracts: hepatic IRS-2 protein; conditions: livers from VEGF Trap-treated mice (FIG. 8)
Source text: as §2, §3

[7] = test system: HIF-2α; assay: Immunoblots of hepatic HIF-2α; conditions: C57Bl/6 mice, 14 days after single injection of 5×10^8 pfu Ad Flt1 vs Ad Fc (FIG. 11)
[8] = test system: db/db mice; assay: Plasma insulin levels by ELISA in db/db mice; conditions: VEGF Trap vs hFc, ELISA (FIG. 31)
Experimental: FIG. 31 is a graph showing plasma insulin levels as determined by ELISA. * P=0.003 between VEGF Trap- and hFc-treated db/db mice. The hyperinsulinemia of db/db mice is corrected by VEGF Trap treatment.
FIGS. 28-29 illustrate that the chronic administration of VEGF Trap protein improves hepatic glucose tolerance in db/db mice. 10 week-old female db/db and db/+ mice (n=5) were treated with twice-weekly subcutaneous injections of 25 mg/kg VEGF Trap or control hFc.

[9] = test system: db/db mice; assay: Ad libidum (fed) and fasting blood glucose levels in db/db mice; conditions: long-term twice-weekly s.c. 25 mg/kg VEGF Trap vs hFc (FIG. 28)
Source text: FIG. 25 is a graph showing ad libidum and fasting blood glucose levels in mice. * P≦0.05 in the indicated treatment groups compared to control.
FIG. 28 is a graph showing ad libidum blood glucose levels. * P<0.04 between VEGF Trap- and hFc-treated db/db mice at the indicated time points.
FIG. 33 is a graph showing the fed and fasting blood glucose levels in db/db mice.
Db/db model. Db/db or wild-type mice received single intravenous injection of adenoviruses encoding Ad Flt (soluble VEGF receptor), Ad Fc (control antibody Fc fragment), VEGF Trap or control human Fc fragment, with or without adenovirus encoding shRNA against HIF-2α, or scrambled control shRNA. Adenovirus gives preferential and quantitative hepatocyte infection, a robust maneuver for achieving hepatic gene knockdown (Canettieri et al., (2005) Cell Metab. 2: 331; Taniguchi et al., (2005) J. Clin. Invest. 115: 718).
as §1
FIGS. 28-29 illustrate that the chronic administration of VEGF Trap protein improves hepatic glucose tolerance in db/db mice. 10 week-old female db/db and db/+ mice (n=5) were treated with twice-weekly subcutaneous injections of 25 mg/kg VEGF Trap or control hFc. […]

Substance: VEGF Trap: Ig domain 2 from VEGFR1 fused to Ig domain 3 from VEGFR2, fused to the Fc domain of IgG1 (Regeneron)
- glucose tolerance (GTT) [1]: improved glucose tolerance; also recorded: improves
- liver phospho-AKT levels [2]: higher levels
- hepatic expression of G6PC and PEPCK [3]: significantly reduced
- blood glucose levels [4]: lowered
- glucose infusion rate to maintain euglycemia ([5]; hyperinsulinemic euglycemic clamp (FIG. 7A)): higher glucose infusion rate
- insulin suppression of hepatic glucose production (insulin action in the liver) ([5]; hyperinsulinemic euglycemic clamp (FIG. 7B)): increased insulin action in the liver
- liver IRS-2 levels [6]: higher levels
- hepatic HIF-2α stabilization [7]: increased stabilization
- plasma insulin levels (hyperinsulinemia) [8]: sustained correction; also recorded: corrected
- ad libidum blood glucose levels (hyperglycemia) [9]: sustained correction
